Results from patent US8193156B1, “Dipeptides incorporating selenoamino acids with enhanced bioavailability—synthesis, pharmaceutical and cosmeceutical applications thereof” (Sami Labs Ltd, priority 2006, dated 2012).

How the values were obtained:
[1] = Aqueous solubility measurements; type: physicochemical; settings: for Aqueous solubility: in water
Source text: Aqueous solubility measurements were done on L-Se-methylselenocysteine and γ-L-glutamyl-L-Se-methylselenocysteine; The solubility of L-Se-methylselenocysteine was ca. 10% with dissolution occurring in two hours in water.

| SMILES | melting point | Time for dissolution in water [1] | Aqueous solubility [1] |
| --- | --- | --- | --- |
| C[Se]CC[C@H](NC(=O)CC[C@H](N)C(=O)O)C(=O)O | 192 to 194 °C | – | – |
| C[Se]C[C@H](N)C(=O)O [L-Se-methylselenocysteine, reference compound] | – | two hours | ca. 10% |
| C[Se]C[C@H](NC(=O)CC[C@H](N)C(=O)O)C(=O)O [γ-L-glutamyl-L-Se-methylselenocysteine, γ-L-glutamyl-Se-methyl-L-selenocysteine] | 159 to 161 °C | thirty minutes | ca. 25% |
